Test results as given in PubChem BioAssay AID463199 (Broad Institute, 2010).
The source made the active and inactive calls.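 Rule for the calls: active = AC50, the dose giving half-maximal effect, exceeds a fixed cutoff for a compound that rescues yeast growth under heat; inactive = the rest, inconclusive results apart.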

Test system: S. cerevisiae Burl-1 ts mutant growth, BacTiter-Glo, 38.5C 24 h
Experiment: restored growth of temperature-sensitive Burl-1 yeast – whole organism, S. cerevisiae, Burl-1 ts mutant, luminescence, counter-screen for SUMOylation pathway inhibitor project, dose response (AID 463199)

Structure (SMILES)	AC50
CCn1c(-c2ccccc2)c(C(=O)CC#N)c2ccccc21	> 42 µM (inactive)
COc1ccc(C(C)=O)cc1CN(c1ccccc1OC)S(=O)(=O)c1cccs1	> 42 µM (inactive)
Cc1nc2ccc(NC(=O)c3ccco3)cc2s1	> 42 µM (inactive)
CCN1CCN(CC(=O)Nc2cccc(C)c2C)C(=O)C1=O	> 42 µM (inactive)
CCOP(=O)(Cc1cc(C(=O)CC)c(C)o1)OCC	> 42 µM (inactive)
COc1ccc(NC(=O)CC(C)C)c(OC)c1	> 42 µM (inactive)
Nc1nc(-c2ccc(Cl)cc2)nc(-c2ccc(Cl)cc2)n1	> 42 µM (inactive)
C[C@@]12C(=O)Nc3ccc(F)cc3C(=O)N1[C@H]1c3ccccc3OC[C@@H]1[C@@H]2c1ccccc1	> 42 µM (inactive)
CC12CC3(C)CC(C)(C1)CC(C(=O)NC(=S)N1CCCC1)(C2)C3	> 42 µM (inactive)
Cc1ccc(S(=O)(=O)N(C)CC(=O)O/N=C(\N)c2ccccn2)cc1	40.6 µM
Cc1ccc(-c2[nH]ncc2CNCCc2cnn(-c3ccccc3)c2)cc1C	> 42 µM (inactive)
O=C(Cc1cccs1)Nc1nnc(-c2ccncc2)s1	> 42 µM (inactive)
CC(C)CCNC(=O)Nc1ccc2c(c1)N(C)C(=O)CS2	> 42 µM (inactive)
O=c1[nH]c(CN2CCN(CCO)CC2)nc2ccccc12	> 42 µM (inactive)
O=C(NCc1ccco1)C1CC(=O)N(c2ccc(Cl)cc2)C1 (stereo not given)	> 42 µM (inactive)
Cc1ccn2cc(-c3cnoc3C)nc2c1	> 42 µM (inactive)
C=C(C)Cc1c(C)c(C#N)c2[nH]c3ccccc3n2c1=O	> 42 µM (inactive)
CCCCN(C(=O)C1=COCCO1)c1c(N)n(Cc2ccccc2)c(=O)[nH]c1=O	> 42 µM (inactive)
CCOC(=O)C1CCN(C(=O)c2ccc3c(c2)NC(=O)/C(=C/c2ccccc2)S3)CC1	> 42 µM (inactive)
COc1cccc(NC(=O)CNC(=O)c2ccc(C)cc2)c1	> 42 µM (inactive)
CCOC(=O)N1CCC(NS(=O)(=O)c2ccc(C)c(Cl)c2)CC1	> 42 µM (inactive)
CC(=O)Nc1ccc(/C(C)=N/NC(=O)c2ccncc2)cc1	> 42 µM (inactive)
O=C(COC(=O)CNC(=O)c1ccc(Cl)cc1)Nc1ncc(C(F)(F)F)cc1Cl	> 42 µM (inactive)
COc1ccc(OCCC(=O)c2ccc(OC)cc2)cc1	> 42 µM (inactive)
CCN(CC)C(=O)C1CCCN(c2ccc([N+](=O)[O-])cc2/C=N/NC(=O)c2cccc(Br)c2)C1 (stereo not given)	> 42 µM (inactive)

Structure (SMILES)	AC50
COc1ccc2c(c1)[C@H]1[C@H](CO2)[C@H](c2ccccc2)[C@]2(C)C(=O)Nc3cc(C)ccc3C(=O)N12	> 42 µM (inactive)
COc1ccc(OC)c(CCNC(=O)c2ccc3c(c2)N(Cc2ccc(F)cc2)CCS3)c1	> 42 µM (inactive)
COc1ccc(N2CCN(C(=O)CNC(=O)Cc3ccc(Cl)cc3)CC2)cc1	> 42 µM (inactive)
O=[N+]([O-])c1nn(-c2ccc(Cl)cc2)n(O)c1=NCc1ccccc1Cl	> 42 µM (inactive)
COc1ccc(S(=O)(=O)Cc2ccc(C(=O)NCc3cccs3)o2)cc1	> 42 µM (inactive)
COc1cccc(/C=C/C(=O)OCC(=O)Nc2ccc(Cl)cn2)c1	> 42 µM (inactive)
c1ccc(CNc2ncnc3sc4c(c23)CCC4)nc1	> 42 µM (inactive)
Cc1nn(-c2ccccc2)c(N)c1N=Nc1cccc(S(=O)(=O)N2CCOCC2)c1	> 42 µM (inactive)
O=C(Nc1cccc(Cl)c1)OCc1cncs1	> 42 µM (inactive)
Cc1nc2ccc(NC(=O)c3ccc(S(=O)(=O)N4CCOCC4)cc3)cc2s1	> 42 µM (inactive)
CCOC(=O)c1ccc(NC(=O)c2nc[nH]c2C(=O)N2CCc3ccccc3C2)cc1	> 42 µM (inactive)
Cc1c(C)c2c(c(C)c1O)CCC(C)(C(=O)O)O2 (stereo not given)	> 42 µM (inactive)
Cc1sc2nc(N)sc2c1C	> 42 µM (inactive)
COc1cc(C(=O)NCCOc2cc(C)cc(C)c2)cc(OC)c1OC	> 42 µM (inactive)
Clc1ccc(CN(Cc2ccccc2)C(c2cccs2)c2nnnn2C2CCCC2)cc1 (stereo not given)	> 42 µM (inactive)
O=c1cc(C(F)(F)F)c2sc(N3CCCCC3)nc2[nH]1	> 42 µM (inactive)
CCOc1cc(/C=C2\NC(=O)NC2=O)ccc1OC(C)C(=O)O (stereo not given)	> 42 µM (inactive)
Cc1cc(C(=O)NN)n[nH]1	> 42 µM (inactive)
Cc1ccc2nc3c(cc(C(=O)NCCN4CCOCC4)c(=N)n3CCCN3CCOCC3)c(=O)n2c1	> 42 µM (inactive)
COc1ccc(S(=O)(=O)N2CCN(c3ccc(F)cc3)CC2)cc1C(=O)N1CCOCC1	> 42 µM (inactive)
CCOC(=O)c1c(C)n(C)c2cc(-c3ccc(C)cc3)c(O)cc12	> 42 µM (inactive)
CC1=CC(=O)C(C(C)C)=C/C1=N/OS(=O)(=O)c1ccccc1	> 50 µM (inactive)
Cc1ccc(S(=O)(=O)NCC(=O)OCC(=O)c2ccc(Br)s2)cc1	> 42 µM (inactive)
Cc1cc(C#Cc2c(-c3ccccc3)n(C)c3ccccc23)ccc1F	> 42 µM (inactive)
CCCCCC(=O)NNC1=NCC(Cc2cccc(Cl)c2)S1 (stereo not given)	> 42 µM (inactive)

Structure (SMILES)	AC50
FC(F)(F)c1nc2ccccc2n2c(-c3ccc(Cl)cc3Cl)nnc12	> 42 µM (inactive)
OC1(c2ccc(F)cc2)CC2CCC(C1)N2Cc1nnnn1C1CCCCC1 (stereo not given)	> 42 µM (inactive)
COC(=O)c1cccc(NC(=O)CN(c2ccc3c(c2)OCO3)S(C)(=O)=O)c1C	> 42 µM (inactive)
Cc1cc(N2CCN(C)CC2)nc2ccc(NC(=S)N3CCC4(CC3)OCCO4)cc12	> 42 µM (inactive)
Cc1cc2nc(CCl)cc(=O)n2[nH]1	> 42 µM (inactive)
COc1ccc2c(c1)OC[C@H]1[C@H]2N2C(=O)c3ccccc3NC(=O)[C@@]2(C)[C@H]1c1ccccc1	> 42 µM (inactive)
Cc1cc(C)n2c(SCC(C)C)nnc2n1	> 42 µM (inactive)
O=C1CC(c2ccccc2)c2ccc(O)cc2O1 (stereo not given)	> 42 µM (inactive)
CN(C)CC/C=C1\c2ccccc2Sc2ccc(Cl)cc21	> 42 µM (inactive)
COCCCn1c(=O)c2ccccc2n(Cc2ccccc2C)c1=O	> 42 µM (inactive)
Cc1cc(Oc2cc(NN3CCCCC3)c([N+](=O)[O-])cc2[N+](=O)[O-])ccc1[N+](=O)[O-]	> 42 µM (inactive)
NC(=O)NC(=O)COC(=O)/C=C/c1cccs1	> 42 µM (inactive)
COc1ccc(-c2nnc(SCC(C)C)o2)cc1	> 42 µM (inactive)
N#CCCN(Cc1cccnc1)C(=O)Nc1cccc(Cl)c1	> 42 µM (inactive)
CC[C@@H]1C/C=C\Cc2ccccc2[C@H](C(=O)C[C@@H](O)CC(C)=O)OC1=O	> 42 µM (inactive)
Cc1cccc(CSc2ccc(-c3ccco3)nn2)c1	> 42 µM (inactive)
COc1ccc(/C=N/NC(=O)CCC(=O)Nc2ccccc2)cc1OC	> 42 µM (inactive)
Cc1nnc(N=c2ssnc2Cl)o1	> 42 µM (inactive)
Cc1ccc(SC[C@H](C)CN2CC[C@H](C)CCC2=O)cc1	> 42 µM (inactive)
CCC(NC(=O)c1ccccc1NC(=O)c1ccco1)C(=O)NC1CCCCC1 (stereo not given)	> 42 µM (inactive)
CCOC(=O)C1CCCN(C(=O)/C=C/c2ccc(Cl)cc2)C1 (stereo not given)	> 42 µM (inactive)
O=C(CCC(=O)OCC(=O)c1ccc(Br)cc1)Nc1cccc2cccnc12	> 42 µM (inactive)
CC(=O)Nc1cccc(OCC(=O)NS(=O)(=O)c2ccc(C)cc2)c1	> 42 µM (inactive)
Cc1ccc(C(C(=O)NCC2CCCO2)N(Cc2ccccc2F)C(=O)Cn2nnc(-c3cccs3)n2)cc1 (stereo not given)	> 42 µM (inactive)
O=C(CSc1nnc(CNC(=O)c2ccccc2F)o1)NCCc1ccccc1	> 42 µM (inactive)

Structure (SMILES)	AC50
COc1ccc(OC)c(Cc2nnc(CCC(=O)NCc3ccsc3)o2)c1	> 42 µM (inactive)
Cc1cc(C)cc(C(=O)Oc2cc(C)[nH]c(=O)c2[N+](=O)[O-])c1	> 42 µM (inactive)
c1ccc2[nH]c(CSc3nccs3)nc2c1	> 42 µM (inactive)
Cc1ccc(C)c(NC(=O)COC(=O)c2ccc3c(c2)OCO3)c1	> 42 µM (inactive)
Cc1nc2nc[nH]n2c(=O)c1NS(=O)(=O)c1ccc([N+](=O)[O-])cc1	> 42 µM (inactive)
CCOc1ccccc1NC(=O)CSc1nc(N)c(C#N)cc1C#N	> 42 µM (inactive)
CCn1nc(CC(=O)Nc2ccc(-n3cnnn3)c(C)c2)c2ccccc2c1=O	> 42 µM (inactive)
COc1ccc(-c2cc(C(F)(F)F)n3ncc(C(=O)O)c3n2)cc1OC	> 42 µM (inactive)
COc1ccc(-c2cc(=O)c3cc(O)ccc3o2)cc1	> 42 µM (inactive)
Cc1nc(NC(=O)CSc2nc(N)cc(N)n2)sc1C	> 42 µM (inactive)
COC(=O)c1ccc(SCC(=O)N2CCC(C)CC2)c([N+](=O)[O-])c1	> 42 µM (inactive)
COc1ccc(Cl)cc1NC(=O)C1CCCN(c2cc(C)nc3ncnn23)C1 (stereo not given)	> 42 µM (inactive)
O=C(Cc1ccc(Cl)cc1Cl)OCC(=O)c1ccc[nH]1	> 42 µM (inactive)
CCCCOc1ccc(C(=O)Nc2ccc(CN3CCOCC3)cc2)cc1	> 42 µM (inactive)
Cc1cccc(C)c1NC(=O)C1(N(Cc2ccco2)C(=O)CC2NC(=O)NC2=O)CCCCC1 (stereo not given)	> 42 µM (inactive)
COc1ccc(/C=C(/C#N)S(=O)(=O)c2ccc(C)cc2)cc1	> 21 µM (inactive)
CCOc1ncccc1C(=O)OCC(=O)N(CC)c1ccccc1	> 42 µM (inactive)
O=C(/C=C/c1cccc([N+](=O)[O-])c1)NCCSCc1ccc(Cl)cc1Cl	> 42 µM (inactive)
CCn1nccc1C(=O)Nc1ccccc1OC	> 42 µM (inactive)
C=CCN1C(=O)/C(=C2/Sc3ccc(OC)cc3N2C)SC1=Nc1ccccc1	> 42 µM (inactive)
COc1ccc(C2C(C(=O)Nc3cc(OC)c(OC)c(OC)c3)c3ccccc3C(=O)N2C)cc1 (stereo not given)	> 42 µM (inactive)
Cc1onc(-c2ccccc2)c1C(=O)N/N=C/C=C/c1ccccc1	> 42 µM (inactive)
CCNc1nc(NCC)nc(SCCOC(=O)Nc2ccccc2)n1	> 42 µM (inactive)
Cc1sc(NC(=O)c2ccc(Br)s2)c(C(N)=O)c1C	> 42 µM (inactive)
CN(C)/C=N/NC(=O)c1ccccc1	> 42 µM (inactive)
